In patent US7074789B2, “Kinase inhibitors” (Amgen Inc., priority 1999, dated 2006):
Read-outs that look alike come from different tables or passages of the source.

Tests used:
Format in all cases: biochemical
IGFR-1 [1] = biological target: T1, IGFR-1 (Homo sapiens, UniProt P08069); assay: Kinase inhibition assay (33P transfer), IGFR-1; details: Table 2, class symbols A-E
T1 construct: Kinases are expressed as either kinase domains or full length constructs; made in house

Lck = biological target: T2, Lck (Homo sapiens, UniProt P06239); assay: Kinase inhibition assay (33P transfer), Lck; details: read-out: Lck-1
T2 construct: Kinases are expressed as either kinase domains or full length constructs; made in house
T2 sequence (P06239 whole entry, species assumed, the tested form may be a part): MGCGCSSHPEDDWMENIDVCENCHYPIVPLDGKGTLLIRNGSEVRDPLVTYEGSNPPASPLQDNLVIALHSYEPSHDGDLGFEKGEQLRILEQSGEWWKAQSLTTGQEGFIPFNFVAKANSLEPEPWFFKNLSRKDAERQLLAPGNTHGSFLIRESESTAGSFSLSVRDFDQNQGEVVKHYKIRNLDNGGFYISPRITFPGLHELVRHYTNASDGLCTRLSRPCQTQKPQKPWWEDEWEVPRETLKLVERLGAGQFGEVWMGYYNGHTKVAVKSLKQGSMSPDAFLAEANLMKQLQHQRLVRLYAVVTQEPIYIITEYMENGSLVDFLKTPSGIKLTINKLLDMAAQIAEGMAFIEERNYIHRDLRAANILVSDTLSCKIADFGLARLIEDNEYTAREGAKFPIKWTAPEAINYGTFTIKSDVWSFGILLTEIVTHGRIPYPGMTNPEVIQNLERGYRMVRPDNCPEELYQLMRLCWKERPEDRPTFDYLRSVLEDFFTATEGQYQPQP
Procedure, shortened: (§1)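 Each kinase, expressed as a GST- or polyHis-tagged domain or full-length protein, phosphorylated plate-attached poly(Glu,Tyr) 4:1 or poly(Arg,Ser) 3:1 using 33P-ATP. Bound radioactivity was measured by scintillation after a 0.5% phosphoric acid wash.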

AKT = biological target: T3, AKT (Homo sapiens, UniProt Q9Y243); assay: Kinase inhibition assay (33P transfer), AKT; details: read-out: AKT3-1
T3 construct: Kinases are expressed as either kinase domains or full length constructs; made in house
T3 sequence (Q9Y243 whole entry, the tested form may be a part): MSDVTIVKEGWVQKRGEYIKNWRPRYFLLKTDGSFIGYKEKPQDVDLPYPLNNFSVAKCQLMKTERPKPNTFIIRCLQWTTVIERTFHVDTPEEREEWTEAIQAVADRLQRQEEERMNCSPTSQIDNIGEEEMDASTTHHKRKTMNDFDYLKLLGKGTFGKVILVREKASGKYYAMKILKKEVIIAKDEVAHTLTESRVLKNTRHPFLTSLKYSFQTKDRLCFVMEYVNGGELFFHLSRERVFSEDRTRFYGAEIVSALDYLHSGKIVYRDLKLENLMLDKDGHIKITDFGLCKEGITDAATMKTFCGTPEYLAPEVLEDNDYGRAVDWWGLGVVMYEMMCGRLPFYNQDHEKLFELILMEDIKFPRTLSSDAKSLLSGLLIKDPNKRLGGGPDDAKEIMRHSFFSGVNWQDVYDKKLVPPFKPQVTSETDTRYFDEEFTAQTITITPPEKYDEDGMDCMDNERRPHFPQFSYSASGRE
Procedure, shortened: as §1

Kdr = biological target: T4, Kdr (Homo sapiens, UniProt P35968); assay: Kinase inhibition assay (33P transfer), Kdr; details: read-out: KDR-1
T4 construct: Kinases are expressed as either kinase domains or full length constructs; made in house
T4 sequence (P35968 20-1356, species assumed): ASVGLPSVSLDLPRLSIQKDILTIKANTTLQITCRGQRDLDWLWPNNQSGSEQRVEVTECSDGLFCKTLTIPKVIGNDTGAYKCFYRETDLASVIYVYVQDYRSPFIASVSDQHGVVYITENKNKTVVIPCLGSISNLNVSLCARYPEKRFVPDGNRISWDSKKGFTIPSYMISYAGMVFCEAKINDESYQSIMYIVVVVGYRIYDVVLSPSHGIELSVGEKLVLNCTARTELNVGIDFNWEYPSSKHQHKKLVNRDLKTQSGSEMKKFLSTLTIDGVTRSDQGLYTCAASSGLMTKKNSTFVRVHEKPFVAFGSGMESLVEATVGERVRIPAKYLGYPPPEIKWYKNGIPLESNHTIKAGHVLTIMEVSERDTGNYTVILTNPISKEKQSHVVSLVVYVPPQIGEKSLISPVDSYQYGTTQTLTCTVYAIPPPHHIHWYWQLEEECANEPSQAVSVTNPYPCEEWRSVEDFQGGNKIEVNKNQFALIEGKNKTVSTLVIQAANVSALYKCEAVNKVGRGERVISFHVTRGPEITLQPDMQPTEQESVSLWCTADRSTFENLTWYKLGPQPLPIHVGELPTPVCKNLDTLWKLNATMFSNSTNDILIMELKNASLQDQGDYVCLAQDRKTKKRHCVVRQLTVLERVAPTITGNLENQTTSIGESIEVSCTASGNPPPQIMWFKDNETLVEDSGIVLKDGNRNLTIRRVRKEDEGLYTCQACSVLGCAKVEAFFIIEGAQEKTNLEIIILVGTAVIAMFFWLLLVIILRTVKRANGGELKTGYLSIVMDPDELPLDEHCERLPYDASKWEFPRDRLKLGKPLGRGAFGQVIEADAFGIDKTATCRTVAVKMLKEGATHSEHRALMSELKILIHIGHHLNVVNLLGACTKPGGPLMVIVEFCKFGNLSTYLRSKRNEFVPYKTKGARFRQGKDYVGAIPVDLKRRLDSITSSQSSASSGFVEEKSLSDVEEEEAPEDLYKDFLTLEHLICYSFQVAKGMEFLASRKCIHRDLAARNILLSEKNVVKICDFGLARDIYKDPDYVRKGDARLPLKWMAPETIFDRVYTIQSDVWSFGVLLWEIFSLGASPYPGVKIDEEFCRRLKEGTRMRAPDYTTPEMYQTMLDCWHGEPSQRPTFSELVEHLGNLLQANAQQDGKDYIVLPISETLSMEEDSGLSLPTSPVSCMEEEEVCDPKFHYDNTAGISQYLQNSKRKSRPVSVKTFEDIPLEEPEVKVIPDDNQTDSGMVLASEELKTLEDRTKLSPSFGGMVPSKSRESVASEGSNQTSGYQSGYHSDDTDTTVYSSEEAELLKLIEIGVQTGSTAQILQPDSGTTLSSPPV
Procedure, shortened: as §1

c-Met = biological target: T5, c-Met (Homo sapiens, UniProt P08581); assay: Kinase inhibition assay (33P transfer), c-Met; details: read-out: Met-1
T5 construct: Kinases are expressed as either kinase domains or full length constructs; made in house
T5 sequence (P08581 25-1390): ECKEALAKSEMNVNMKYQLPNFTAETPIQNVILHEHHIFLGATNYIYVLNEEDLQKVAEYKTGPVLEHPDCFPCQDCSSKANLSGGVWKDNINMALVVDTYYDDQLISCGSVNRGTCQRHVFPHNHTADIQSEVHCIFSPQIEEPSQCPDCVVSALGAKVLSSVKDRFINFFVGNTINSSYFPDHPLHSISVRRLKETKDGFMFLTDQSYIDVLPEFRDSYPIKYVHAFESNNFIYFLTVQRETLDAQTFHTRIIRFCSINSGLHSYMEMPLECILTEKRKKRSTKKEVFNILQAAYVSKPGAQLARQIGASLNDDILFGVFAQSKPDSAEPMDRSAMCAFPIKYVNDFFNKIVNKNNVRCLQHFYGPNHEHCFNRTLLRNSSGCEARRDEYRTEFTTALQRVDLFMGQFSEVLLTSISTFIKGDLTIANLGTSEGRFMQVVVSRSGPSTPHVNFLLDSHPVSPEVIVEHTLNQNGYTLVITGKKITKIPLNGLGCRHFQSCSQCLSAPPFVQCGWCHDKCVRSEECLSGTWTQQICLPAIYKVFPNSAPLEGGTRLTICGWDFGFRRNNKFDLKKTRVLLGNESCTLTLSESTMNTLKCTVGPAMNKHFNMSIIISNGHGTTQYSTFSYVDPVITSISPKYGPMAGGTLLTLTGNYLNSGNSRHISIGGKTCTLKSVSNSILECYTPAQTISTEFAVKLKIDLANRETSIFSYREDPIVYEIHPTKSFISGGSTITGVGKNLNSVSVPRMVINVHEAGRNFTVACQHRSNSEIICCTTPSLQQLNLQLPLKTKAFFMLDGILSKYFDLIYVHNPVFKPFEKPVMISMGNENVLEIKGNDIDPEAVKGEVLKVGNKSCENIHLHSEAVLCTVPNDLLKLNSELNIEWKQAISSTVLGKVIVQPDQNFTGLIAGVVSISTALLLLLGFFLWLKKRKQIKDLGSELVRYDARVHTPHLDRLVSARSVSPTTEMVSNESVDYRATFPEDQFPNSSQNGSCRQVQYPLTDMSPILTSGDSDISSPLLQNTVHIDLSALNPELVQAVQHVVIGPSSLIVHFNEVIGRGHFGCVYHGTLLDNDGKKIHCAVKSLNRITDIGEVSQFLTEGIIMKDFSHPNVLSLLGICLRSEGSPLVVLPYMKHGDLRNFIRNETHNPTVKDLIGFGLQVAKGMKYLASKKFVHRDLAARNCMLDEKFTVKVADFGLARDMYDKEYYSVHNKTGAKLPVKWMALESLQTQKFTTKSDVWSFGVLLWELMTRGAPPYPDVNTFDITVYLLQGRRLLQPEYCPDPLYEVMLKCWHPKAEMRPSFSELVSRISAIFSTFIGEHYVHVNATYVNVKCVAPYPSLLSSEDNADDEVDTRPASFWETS
Procedure, shortened: (§2)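 Recombinant kinase domains or full-length GST- or His-tagged constructs, from E. coli or baculovirus/High Five cells, sometimes with regulatory polypeptides. Transfer of 33P from ATP to plate-bound poly(Glu,Tyr) 4:1 or poly(Arg,Ser) 3:1 counted by liquid scintillation after phosphoric acid wash; IC50 is the concentration halving incorporation.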

EGFR = biological target: T6, EGFR (Homo sapiens, UniProt P00533); assay: Kinase inhibition assay (33P transfer), EGFR; details: read-out: EGFR-1
T6 construct: Kinases are expressed as either kinase domains or full length constructs; made in house
T6 sequence (P00533 25-1210, species assumed): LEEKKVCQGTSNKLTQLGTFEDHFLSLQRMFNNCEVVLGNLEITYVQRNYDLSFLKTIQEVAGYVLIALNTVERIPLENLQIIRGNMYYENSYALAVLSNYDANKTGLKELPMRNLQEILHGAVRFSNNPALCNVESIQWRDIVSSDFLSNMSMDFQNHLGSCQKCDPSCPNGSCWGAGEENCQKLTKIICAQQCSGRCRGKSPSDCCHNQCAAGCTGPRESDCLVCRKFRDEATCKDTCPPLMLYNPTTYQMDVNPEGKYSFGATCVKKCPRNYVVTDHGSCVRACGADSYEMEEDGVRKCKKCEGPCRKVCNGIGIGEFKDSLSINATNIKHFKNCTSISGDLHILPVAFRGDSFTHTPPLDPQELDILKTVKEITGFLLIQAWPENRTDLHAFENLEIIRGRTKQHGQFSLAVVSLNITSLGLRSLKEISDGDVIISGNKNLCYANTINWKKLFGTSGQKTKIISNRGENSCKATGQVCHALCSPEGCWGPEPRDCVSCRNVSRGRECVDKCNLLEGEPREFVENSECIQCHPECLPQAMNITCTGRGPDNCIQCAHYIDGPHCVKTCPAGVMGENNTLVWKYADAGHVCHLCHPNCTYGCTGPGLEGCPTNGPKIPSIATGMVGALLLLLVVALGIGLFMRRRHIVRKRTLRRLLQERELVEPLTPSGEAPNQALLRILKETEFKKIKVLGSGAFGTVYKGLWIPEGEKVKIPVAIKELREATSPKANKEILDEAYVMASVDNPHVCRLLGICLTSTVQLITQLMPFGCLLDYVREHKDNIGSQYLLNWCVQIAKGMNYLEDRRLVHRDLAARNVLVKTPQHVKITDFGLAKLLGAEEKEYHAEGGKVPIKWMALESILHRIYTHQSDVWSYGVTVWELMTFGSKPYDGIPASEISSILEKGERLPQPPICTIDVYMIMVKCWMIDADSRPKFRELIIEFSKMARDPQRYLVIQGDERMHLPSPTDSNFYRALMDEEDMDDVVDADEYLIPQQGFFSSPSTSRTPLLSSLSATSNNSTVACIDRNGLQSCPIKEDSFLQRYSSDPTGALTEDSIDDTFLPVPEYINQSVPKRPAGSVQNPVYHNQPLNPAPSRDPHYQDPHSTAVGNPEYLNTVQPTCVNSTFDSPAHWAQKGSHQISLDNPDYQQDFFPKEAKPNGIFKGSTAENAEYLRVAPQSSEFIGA
Procedure, shortened: as §2

Itk = biological target: T7, Itk (Homo sapiens, UniProt Q08881); assay: Kinase inhibition assay (33P transfer), Itk; details: read-out: Itk-1
T7 construct: Kinases are expressed as either kinase domains or full length constructs; made in house
T7 sequence (Q08881 1-620): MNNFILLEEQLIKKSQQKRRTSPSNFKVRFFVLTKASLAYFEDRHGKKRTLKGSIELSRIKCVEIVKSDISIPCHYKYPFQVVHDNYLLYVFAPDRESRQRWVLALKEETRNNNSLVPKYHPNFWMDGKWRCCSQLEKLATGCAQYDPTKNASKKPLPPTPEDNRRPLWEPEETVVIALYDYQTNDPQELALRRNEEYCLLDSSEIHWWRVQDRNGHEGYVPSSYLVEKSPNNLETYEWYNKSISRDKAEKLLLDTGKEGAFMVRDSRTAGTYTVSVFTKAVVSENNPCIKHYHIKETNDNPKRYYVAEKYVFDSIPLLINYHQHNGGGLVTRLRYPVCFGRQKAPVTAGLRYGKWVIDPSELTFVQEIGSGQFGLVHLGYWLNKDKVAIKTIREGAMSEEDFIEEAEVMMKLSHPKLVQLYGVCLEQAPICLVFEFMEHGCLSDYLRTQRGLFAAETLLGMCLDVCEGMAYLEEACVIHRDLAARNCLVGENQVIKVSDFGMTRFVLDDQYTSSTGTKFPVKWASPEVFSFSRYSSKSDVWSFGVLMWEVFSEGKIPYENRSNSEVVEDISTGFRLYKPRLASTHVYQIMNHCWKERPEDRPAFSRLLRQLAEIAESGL
Procedure, shortened: as §2

Zap-70 = biological target: T8, Zap-70 (Homo sapiens, UniProt P43403); assay: Kinase inhibition assay (33P transfer), Zap-70; details: read-out: Zap-1
T8 construct: Kinases are expressed as either kinase domains or full length constructs; made in house
T8 sequence (P43403 1-619): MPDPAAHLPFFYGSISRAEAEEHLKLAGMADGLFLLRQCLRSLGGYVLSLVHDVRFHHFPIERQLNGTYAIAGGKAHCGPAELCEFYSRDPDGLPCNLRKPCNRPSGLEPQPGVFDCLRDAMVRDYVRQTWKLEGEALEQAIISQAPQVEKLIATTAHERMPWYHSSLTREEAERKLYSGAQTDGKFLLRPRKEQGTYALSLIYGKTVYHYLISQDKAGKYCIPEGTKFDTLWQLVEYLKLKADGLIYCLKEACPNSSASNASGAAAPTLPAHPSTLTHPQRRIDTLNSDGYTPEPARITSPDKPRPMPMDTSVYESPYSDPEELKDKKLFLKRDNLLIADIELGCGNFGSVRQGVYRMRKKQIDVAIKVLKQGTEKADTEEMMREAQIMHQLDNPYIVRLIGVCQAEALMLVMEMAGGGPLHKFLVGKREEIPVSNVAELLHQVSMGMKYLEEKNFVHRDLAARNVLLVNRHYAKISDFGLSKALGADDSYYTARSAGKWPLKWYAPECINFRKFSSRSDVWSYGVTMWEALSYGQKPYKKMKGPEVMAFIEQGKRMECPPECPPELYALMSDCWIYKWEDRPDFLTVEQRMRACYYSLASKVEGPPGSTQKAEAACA
Procedure, shortened: as §1

ErbB4 = biological target: T9, ErbB4 (Homo sapiens, UniProt Q15303); assay: Kinase inhibition assay (33P transfer), ErbB4; details: read-out: ErbB4-1
T9 construct: Kinases are expressed as either kinase domains or full length constructs; made in house

Tek = biological target: T10, Tek (Homo sapiens, UniProt Q02763); assay: Kinase inhibition assay (33P transfer), Tek; details: read-out: Tek-1
T10 construct: Kinases are expressed as either kinase domains or full length constructs; made in house
Procedure, shortened: as §2

EPHB4 = biological target: T11, EPHB4 (Homo sapiens, UniProt P54760); assay: Kinase inhibition assay (33P transfer), EPHB4; details: read-out: EPHB4-1
T11 construct: Kinases are expressed as either kinase domains or full length constructs; made in house
T11 sequence (P54760 16-987): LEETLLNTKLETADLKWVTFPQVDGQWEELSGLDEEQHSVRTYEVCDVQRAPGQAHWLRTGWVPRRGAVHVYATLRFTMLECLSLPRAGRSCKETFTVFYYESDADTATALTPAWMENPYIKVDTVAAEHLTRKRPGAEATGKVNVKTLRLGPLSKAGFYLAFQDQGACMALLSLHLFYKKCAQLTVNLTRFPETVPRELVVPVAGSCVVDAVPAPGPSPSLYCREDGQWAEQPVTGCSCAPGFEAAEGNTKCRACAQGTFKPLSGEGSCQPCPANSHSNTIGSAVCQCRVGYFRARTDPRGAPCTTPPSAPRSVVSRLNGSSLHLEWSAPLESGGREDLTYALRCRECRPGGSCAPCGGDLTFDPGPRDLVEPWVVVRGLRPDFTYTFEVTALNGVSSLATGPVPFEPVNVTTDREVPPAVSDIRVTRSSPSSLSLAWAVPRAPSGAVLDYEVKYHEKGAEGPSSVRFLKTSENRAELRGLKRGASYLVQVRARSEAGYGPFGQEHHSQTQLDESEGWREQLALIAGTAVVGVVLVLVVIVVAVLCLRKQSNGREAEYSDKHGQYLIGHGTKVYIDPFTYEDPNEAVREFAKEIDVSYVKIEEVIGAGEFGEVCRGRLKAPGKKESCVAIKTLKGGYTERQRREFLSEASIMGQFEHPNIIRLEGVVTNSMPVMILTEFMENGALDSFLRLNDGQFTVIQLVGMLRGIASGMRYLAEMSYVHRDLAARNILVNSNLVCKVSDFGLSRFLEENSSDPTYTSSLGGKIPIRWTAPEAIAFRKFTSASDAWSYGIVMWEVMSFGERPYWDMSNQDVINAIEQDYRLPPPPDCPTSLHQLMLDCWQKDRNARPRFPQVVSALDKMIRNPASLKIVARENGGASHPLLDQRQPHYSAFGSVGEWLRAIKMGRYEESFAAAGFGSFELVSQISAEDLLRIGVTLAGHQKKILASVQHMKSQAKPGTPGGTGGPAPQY

IGFR-1 [2] = biological target: T1, IGFR-1; assay: Kinase inhibition assay (33P transfer), IGFR-1; details: Table 2, kinase inhibition class
[3] = Table 2, kinase inhibition class

SMILES	IC50 (IGFR-1 [1]) [µM]	IC50 (Lck; Table 3, class symbols) [µM]	IC50 (AKT; Table 2, class symbols A-E) [µM]	IC50 (Kdr; Table 3, class symbols) [µM]	IC50 (c-Met; Table 2, class symbols A-E) [µM]	IC50 (EGFR; Table 2, class symbols A-E) [µM]	IC50 (Itk; Table 3, class symbols) [µM]	IC50 (Zap-70; Table 3, class symbols) [µM]	IC50 (Lck; Table 3) [µM]	IC50 (AKT; [3]) [µM]	IC50 (ErbB4) [µM]	IC50 (Kdr; Table 3) [µM]	IC50 (c-Met; [3]) [µM]	IC50 (EGFR; [3]) [µM]	IC50 (Itk; Table 3) [µM]	IC50 (Tek) [µM]	IC50 (Zap-70; Table 3) [µM]	IC50 (EPHB4) [µM]	IC50 (IGFR-1 [2]) [µM]
COc1ccc(Nc2ncnc(N(C)c3ccccc3OC(F)(F)F)n2)cc1OC [Compound 867]	> 10.7	0.949 to 5.7	0.949 to 5.7	8.31 to 10.7	< 0.949	0.949 to 5.7	> 10.7	> 10.7											
COc1ccc(Nc2ncnc(Nc3cccc(Br)c3)n2)cc1OC [Compound 118]									8.7 to 11.2	> 11.2	> 11.2	> 11.2	> 11.2	< 0.994	0.994 to 5.97	> 11.2	> 11.2	0.994 to 5.97	0.994 to 5.97
COc1ccc(Nc2ncnc(Nc3ccc(OCc4ccccc4)cc3)n2)cc1OC [Compound 157]									> 10.5	8.15 to 10.5	> 10.5	0.931 to 5.59	8.15 to 10.5	0.931 to 5.59	> 10.5	5.59 to 8.15	5.59 to 8.15	0.931 to 5.59	> 10.5
COc1ccc(Nc2ncnc(Nc3ccccc3C)n2)cc1OC [Compound 111]									1.19 to 7.11	> 13.3	> 13.3	1.19 to 7.11	> 13.3	< 1.19	> 13.3	> 13.3	> 13.3	> 13.3	< 1.19
COc1cc(Nc2ncnc(Nc3cccc(OC(F)(F)F)c3)n2)cc(OC)c1OC [Compound 250]									0.915 to 5.49	> 10.3	0.915 to 5.49	5.49 to 8	> 10.3	< 0.915	> 10.3	> 10.3	> 10.3	> 10.3	< 0.915
CCOC(=O)Cc1ccc(Nc2ncnc(Nc3cc(OC)c(OC)c(OC)c3)n2)cc1 [Compound 62]									0.91 to 5.46	> 10.2	> 10.2	0.91 to 5.46	7.96 to 10.2	< 0.91	> 10.2	> 10.2	> 10.2	> 10.2	0.91 to 5.46
Oc1cccc(Nc2ncnc(Nc3ccc(OCc4ccccc4)cc3)n2)c1 [Compound 159]									> 11.7	1.04 to 6.23	> 11.7	6.23 to 9.08	1.04 to 6.23	< 1.04	> 11.7	6.23 to 9.08	6.23 to 9.08	6.23 to 9.08	9.08 to 11.7
COc1cc(Nc2ncnc(Nc3cc(C)ccc3C)n2)cc(OC)c1OC [Compound 932]									1.05 to 6.29	> 11.8	1.05 to 6.29	< 1.05	6.29 to 9.18	1.05 to 6.29	> 11.8	6.29 to 9.18	> 11.8	> 11.8	1.05 to 6.29
